Structures are written as SMILES.

These results are taken from patent US12453740B2, “Nucleic acids for cell recognition and integration” (Emory University, priority 2018, dated 2025).

The subject of experiment [1] is MM (MM1S), PC (ASPC-1), and CC (HCT 116) cell lines. Nature of the experiment: ctDNA integration with NHEJ, alternative pathway and transposase inhibitors (Example 25). It is filed as cell-based, human. The settings on record: 2 hours pretreatment; DNA-PKCS inhibitor I 30 μM, KU-55933 10 μM, raltegravir 100 nM; compared to control or NU1025 200 μM. On the procedure:
About 10^6 MM1s, PANC1 and HCT-116 cells were treated for 2 hours with inhibitors of the non-homologous end join (NHEJ) repair system such as KU-55933 (ATM inhibitor, 10 μM) and DNA-PKCS inhibitor I, (30 μM), alternative repair pathway such as a poly ADP ribose polymerase inhibitor NU1025 (PARP, 200 μM) and an integrase/transposase inhibitor (raltegravir, 100 nM). After treatment with inhibitors, rhodamine-labeled ctDNA construct was added to the culture media for 24 hours. Cells were then arrested, and chromosome spreads were obtained as noted above. Integration site counts per cell were obtained after counting a minimum of 20 metaphases (FIG. 32).
Transposable elements (TEs) can play an important role in the mechanism of HGT observed in prokaryotes and few cases of eukaryotes (insects and plants). Thus, it was investigated whether inhibition of transposable elements could reduce or prevent ctDNA integration into chromatids. To that end, cells were treated for 2 hours with raltegravir, a transposase inhibitor, before the addition of ctDNA into culture media. For controls, inhibitors of ATM (KU-55933), DNPkc (DNA-PKCS inhibitor I) and PARP (NU1025) were used. […]

In experiment [2] the test system is chromosomes of plasma cells. Nature of the experiment: Incorporation of labeled ctDNA into chromosomes with NHEJ, PARP and integrase inhibitors (Example 6). In kind it is cell-based, human. The settings on record: DNA-PKCS inhibitor I 200 nM; KU-55933; raltegravir 30 nM; NU1025 200 nM. On the procedure:
For further evaluation, chromosome spreads from MM and lung cancer cell lines were cultured with covalently labeled ctDNA obtained from patients with MM.

In the case of `O=c1cc(-c2cccc3c2Sc2ccccc2S3)oc(N2CCOCC2)c1` [KU-55933], in experiment [1], the “integration of ctDNA (rhodamine bands into the chromosomes)” value is recorded as “significantly reduced”. In addition, the “Incorporation of labeled ctDNA into chromosomes” value (“Incorporation” below) in experiment [2] was “reduced significantly”. Take `Cc1nc2c(O)cccc2c(=O)[nH]1` [NU1025]: the “Incorporation” value in experiment [2] is “less so”. With `Cc1nnc(C(=O)NC(C)(C)c2nc(C(=O)NCc3ccc(F)cc3)c(O)c(=O)n2C)o1` [raltegravir], the “integration of ctDNA (rhodamine bands into the chromosomes)” value in experiment [1] is on record as “significantly reduced”. The “Incorporation” value in experiment [2] is “reduced significantly”.
